SMILES strings stand for the structures. Where two headings read alike, the source gives them in different places. Peptide text beside a SMILES is read from it. * marks the point of attachment. X41 = O=C1C=CC(=O)N1c1ccc(CCCCCCCCCCCCC(=O)*)cc1; X36 = O=C1C=CC(=O)N1c1ccc(CCCCCCCCCCCC(=O)*)cc1; X39 = O=C1C=CC(=O)N1c1ccc(CCCCCCCCCCC(=O)*)cc1; X26 = O=C1C=CC(=O)N1CCOCCOCCOCCOCCOCCCCC(=O)*; X62 = O=C1C=CC(=O)N1CCCCCCCCCCCCC(=O)*; X21 = O=C1C=CC(=O)N1CCOCCCCCCC(=O)*; X3 = O=C1C=CC(=O)N1CCOCCOCCCCC(=O)*; X82 = O=C1C=CC(=O)N1CCCCCCCCC(=O)*; X1 = O=C1C=CC(=O)N1CCOCCCC(=O)*; X45 = O=C1C=CC(=O)N1CCCCC(=O)*

These results are taken from patent publication US20200270309A1, “MALEIMIDE GROUP-MODIFIED ANGIOGENESIS INHIBITOR HM-1 AND USE THEREOF” (NANJING ANJI BIOLOGICAL TECHNOLOGY CO., LTD, priority 2017, published 2020).

The data set can be described thus: Half-lives and pharmacokinetic parameters of polypeptides vs HM-1. Conditions: in vivo.

For the molecule `C[C@H](NC(=O)CNC(=O)[C@H](CCCNC(=N)N)NC(=O)CCCOCCN1C(=O)C=CC1=O)C(=O)N[C@@H](CC(=O)O)C(=O)N[C@@H](CCCNC(=N)N)C(=O)N[C@@H](C)C(=O)NCC(=O)NCC(=O)NCC(=O)NCC(=O)N[C@@H](CCCNC(=N)N)C(=O)NCC(=O)N[C@@H](CC(=O)O)C(=O)O` [X51] (X1-RGADRAGGGGRGD-OH), the AUC(0-inf) was 32500 ± 7310 ng·h/mL, the MRT inf was 58.1 ± 9.42 h and the clearance was 0.513 mL/min/kg. This molecule had a half-life (T1/2β (half-life)) of 40.28 ± 0.24 h.

In turn, `C[C@H](NC(=O)CNC(=O)[C@H](CCCNC(=N)N)NC(=O)CCCCOCCOCCOCCOCCOCCN1C(=O)C=CC1=O)C(=O)N[C@@H](CC(=O)O)C(=O)N[C@@H](CCCNC(=N)N)C(=O)N[C@@H](C)C(=O)NCC(=O)NCC(=O)NCC(=O)NCC(=O)N[C@@H](CCCNC(=N)N)C(=O)NCC(=O)N[C@@H](CC(=O)O)C(=O)O` [X80] (X26-RGADRAGGGGRGD-OH) showed an AUC(0-inf) of 34500 ± 7330 ng·h/mL, an MRT inf of 61.6 ± 11.7 h and a clearance of 0.483 mL/min/kg. The molecule also showed a half-life (T1/2β (half-life)) of 42.72 ± 0.25 h.

For `C[C@H](NC(=O)CNC(=O)[C@H](CCCNC(=N)N)NC(=O)CCCCCCCCN1C(=O)C=CC1=O)C(=O)N[C@@H](CC(=O)O)C(=O)N[C@@H](CCCNC(=N)N)C(=O)N[C@@H](C)C(=O)NCC(=O)NCC(=O)NCC(=O)NCC(=O)N[C@@H](CCCNC(=N)N)C(=O)NCC(=O)N[C@@H](CC(=O)O)C(=O)O` [X8] (X82-RGADRAGGGGRGD-OH), the AUC(0-inf) is 27900 ± 7570 ng·h/mL, the MRT inf was 50 ± 12.6 h and the clearance was 0.597 mL/min/kg. Further, the half-life (T1/2β (half-life)) was 34.68 ± 0.31 h.

In turn, `C[C@H](NC(=O)CNC(=O)[C@H](CCCNC(=N)N)NC(=O)CCCCOCCOCCN1C(=O)C=CC1=O)C(=O)N[C@@H](CC(=O)O)C(=O)N[C@@H](CCCNC(=N)N)C(=O)N[C@@H](C)C(=O)NCC(=O)NCC(=O)NCC(=O)NCC(=O)N[C@@H](CCCNC(=N)N)C(=O)NCC(=O)N[C@@H](CC(=O)O)C(=O)O` [X59] (X3-RGADRAGGGGRGD-OH) showed an AUC(0-inf) of 30300 ± 7110 ng·h/mL, an MRT inf of 54.2 ± 9.93 h and a clearance of 0.553 mL/min/kg. Moreover, the half-life (T1/2β (half-life)) is 37.55 ± 0.27 h.

The molecule `C[C@H](NC(=O)CNC(=O)[C@H](CCCNC(=N)N)NC(=O)CCCCCCCCCCCCc1ccc(N2C(=O)C=CC2=O)cc1)C(=O)N[C@@H](CC(=O)O)C(=O)N[C@@H](CCCNC(=N)N)C(=O)N[C@@H](C)C(=O)NCC(=O)NCC(=O)NCC(=O)NCC(=O)N[C@@H](CCCNC(=N)N)C(=O)NCC(=O)N[C@@H](CC(=O)O)C(=O)O` [X48] (X41-RGADRAGGGGRGD-OH) showed an AUC(0-inf) of 29200 ± 7650 ng·h/mL, an MRT inf of 52.9 ± 12.1 h and a clearance of 0.565 mL/min/kg. Besides, for the setting “T1/2β (half-life)”, the half-life was 36.64 ± 0.27 h.

Take `C[C@H](NC(=O)CNC(=O)[C@H](CCCNC(=N)N)NC(=O)CCCCCCOCCN1C(=O)C=CC1=O)C(=O)N[C@@H](CC(=O)O)C(=O)N[C@@H](CCCNC(=N)N)C(=O)N[C@@H](C)C(=O)NCC(=O)NCC(=O)NCC(=O)NCC(=O)N[C@@H](CCCNC(=N)N)C(=O)NCC(=O)N[C@@H](CC(=O)O)C(=O)O` [X54] (X21-RGADRAGGGGRGD-OH): the AUC(0-inf) turned out to be 27200 ± 7640 ng·h/mL, the MRT inf came out at 48.8 ± 11.2 h and the clearance is 0.612 mL/min/kg. Further, the half-life (T1/2β (half-life)) was 33.83 ± 0.25 h.

The molecule `C[C@H](NC(=O)CNC(=O)[C@H](CCCNC(=N)N)NC(=O)CCCCCCCCCCc1ccc(N2C(=O)C=CC2=O)cc1)C(=O)N[C@@H](CC(=O)O)C(=O)N[C@@H](CCCNC(=N)N)C(=O)N[C@@H](C)C(=O)NCC(=O)NCC(=O)NCC(=O)NCC(=O)N[C@@H](CCCNC(=N)N)C(=O)NCC(=O)N[C@@H](CC(=O)O)C(=O)O` [X46] (X39-RGADRAGGGGRGD-OH) had an AUC(0-inf) of 31600 ± 7470 ng·h/mL, an MRT inf of 56.6 ± 11 h and a clearance of 0.527 mL/min/kg. This molecule also showed a half-life (T1/2β (half-life)) of 39.23 ± 0.29 h.

With `C[C@H](NC(=O)CNC(=O)[C@H](CCCNC(=N)N)NC(=O)CCCCCCCCCCCc1ccc(N2C(=O)C=CC2=O)cc1)C(=O)N[C@@H](CC(=O)O)C(=O)N[C@@H](CCCNC(=N)N)C(=O)N[C@@H](C)C(=O)NCC(=O)NCC(=O)NCC(=O)NCC(=O)N[C@@H](CCCNC(=N)N)C(=O)NCC(=O)N[C@@H](CC(=O)O)C(=O)O` [X47] (X36-RGADRAGGGGRGD-OH), the AUC(0-inf) worked out at 33200 ± 7130 ng·h/mL, the MRT inf was determined as 59.4 ± 12 h and the clearance was 0.502 mL/min/kg. Also, the half-life (T1/2β (half-life)) was 41.19 ± 0.27 h.

For the molecule `C[C@H](NC(=O)CNC(=O)[C@H](CCCNC(=N)N)NC(=O)CCCCCCCCCCCCN1C(=O)C=CC1=O)C(=O)N[C@@H](CC(=O)O)C(=O)N[C@@H](CCCNC(=N)N)C(=O)N[C@@H](C)C(=O)NCC(=O)NCC(=O)NCC(=O)NCC(=O)N[C@@H](CCCNC(=N)N)C(=O)NCC(=O)N[C@@H](CC(=O)O)C(=O)O` [X12] (X62-RGADRAGGGGRGD-OH), the AUC(0-inf) amounted to 29200 ± 8180 ng·h/mL, the MRT inf stood at 52.2 ± 9.78 h and the clearance is 0.572 mL/min/kg. The same molecule showed a half-life (T1/2β (half-life)) of 36.2 ± 0.25 h.

Regarding `C[C@H](NC(=O)CNC(=O)[C@H](CCCNC(=N)N)NC(=O)CCCCN1C(=O)C=CC1=O)C(=O)N[C@@H](CC(=O)O)C(=O)N[C@@H](CCCNC(=N)N)C(=O)N[C@@H](C)C(=O)NCC(=O)NCC(=O)NCC(=O)NCC(=O)N[C@@H](CCCNC(=N)N)C(=O)NCC(=O)N[C@@H](CC(=O)O)C(=O)O` [X4] (X45-RGADRAGGGGRGD-OH), the AUC(0-inf) (read-out: AUC0-∞) was 30100 ± 7330 ng·h/mL. Also, the clearance (read-out: CL (converted)) was 0.553 mL/min/kg. Further, under “read-out: MRT0-∞”, the MRT inf was found to be 54 ± 10.5 h. Also, under “read-out: T1/2β (half-life) (converted)”, the half-life was 37.44 ± 0.27 h.
